Assay results taken from US5670498A, “8-substituted styryl xanthine derivatives” (Kyowa Hakko Kogyo Co., Ltd., priority 1992, dated 1997).
Where two headings read alike, the source gives them in different places.

Experiments:
adenosine A2 receptor [1] = biological target: T1, adenosine A2 receptor (Rattus norvegicus, UniProt P30543); experiment: Adenosine A2 Receptor Binding Test (3H-CGS 21680, rat corpus striatum); conditions: [3H]CGS 21680, read-out: A2 Receptor Inhibition Rate; for inhibition at 1 µM: 10^-6 M; for inhibition at 0.1 µM: 10^-7 M
T1 construct: Corpus striatum of a rat was suspended in ice-cooled 50 mM Tris; from tissue; host or cells: rat corpus striatum (washed membrane suspension)
T1 sequence (P30543 whole entry): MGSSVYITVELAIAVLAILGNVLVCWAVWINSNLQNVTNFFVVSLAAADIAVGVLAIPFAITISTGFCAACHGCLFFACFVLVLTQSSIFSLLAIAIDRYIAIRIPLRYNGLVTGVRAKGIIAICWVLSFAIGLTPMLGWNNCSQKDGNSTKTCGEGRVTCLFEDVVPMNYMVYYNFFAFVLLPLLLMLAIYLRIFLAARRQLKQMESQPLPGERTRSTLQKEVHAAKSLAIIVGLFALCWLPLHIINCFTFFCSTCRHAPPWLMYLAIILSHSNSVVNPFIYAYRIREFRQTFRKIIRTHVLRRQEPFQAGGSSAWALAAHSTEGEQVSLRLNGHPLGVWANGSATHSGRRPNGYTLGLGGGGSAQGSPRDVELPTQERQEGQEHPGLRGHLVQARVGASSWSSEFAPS
Protocol: Adenosine Receptor Antagonistic Activity (Adenosine A2 Receptor Binding Test)
Corpus striatum of a rat was suspended in ice-cooled 50 mM Tris hydroxymethyl aminomethane hydrochloride (Tris HCl) buffer (pH 7.7) by using Polytron homogenizer (manufactured by Kinematicas Co.). The suspension was centrifuged (50,000×g, 10 minutes), and the precipitate was suspended again in the same amount of 50 mM Tris HCl buffer. The suspension was centrifuged under the same conditions, and the final precipitate was suspended once again in 50 mM Tris HCl buffer containing 10 mM magnesium chloride and 0.02 unit/mg tissue of adenosine deaminase (manufactured by Sigma Co.) to give a tissue concentration of 5 mg (wet weight)/ml.
To 1 ml of the tissue suspension thus prepared were added 50 μl of a mixture of N-ethylcarboxamidoadenosine labeled with tritium (^3 H-NECA: 26 Ci/mmol, manufactured by Amersham Co.) (final concentration: 3.8 nM) and cyclopentyladenosine (CPA, manufactured by Sigma Co.) (final concentration: 50 nM), and 50 μl of a test compound. The resulting mixture was allowed to stand at 25° C. for 120 minutes and then rapidly filtered by suction through a glass fiber filter (GF/C, manufactured by Whatman Co.). The filter was immediately washed three times with 5 ml each of ice-cooled 50 mM Tris HCl buffer, and transferred to a vial, and a scintillator (EX-H by Wako Pure Chemical Industries, Ltd.) was added thereto. The radioactivity on the filter was determined with a liquid scintillation counter (manufactured by Packard instrument Co.).
The similar procedure as above was repeated to determine the radioactivity bound to the A2 receptors using 50 μl of CGS 21680 labeled with tritium {^3 H-2-[p-(2-carboxyethyl)phenethylamino]-5'-(N-ethylcarboxamide)adenosine: 40 Ci/mmol, manufactured by New England Nuclear Co. [J. Pharmacol. Exp. Ther., 251, 888 (1989)]} (final concentration: 4.0 nM) in place of 50 μl of the mixture of N-ethylcarboxamidoadenosine labeled with tritium (^3 H-NECA: 26 Ci/mmol, manufactured by Amersham Co.) (final concentration: 3.8 nM) and cyclopentyladenosine (CPA, manufactured by Sigma Co.) (final concentration: 50 nM).
The inhibition rate of the test compound against the binding of A2 receptors (^3 H-CGS 21680 binding) was calculated by the following equation: [formula]

adenosine A2 receptor [2] = biological target: T1, adenosine A2 receptor; experiment: Adenosine A2 Receptor Binding Test (3H-NECA + CPA, rat corpus striatum); conditions: for inhibition at 1 µM: 10^-6 M
Protocol: Corpus striatum of a rat was suspended in ice-cooled 50 mM Tris hydroxymethyl aminomethane hydrochloride (Tris HCl) buffer (pH 7.7) by using Polytron homogenizer (manufactured by […] Co.). The suspension was centrifuged (50,000×g, 10 minutes), and the precipitate was suspended again in the same amount of 50 mM Tris HCl buffer. The suspension was centrifuged under the same conditions, and the final precipitate was suspended once again in 50 mM Tris HCl buffer containing 10 mM magnesium chloride and 0.02 unit/mg tissue of adenosine deaminase (manufactured by Sigma Co.) to give a tissue concentration of 5 mg (wet weight)/ml. […] The resulting mixture was allowed to stand at 25° C. for 120 minutes and then rapidly filtered by suction through a glass fiber filter (GF/C, manufactured by Whatman Co.). […] The radioactivity on the filter was determined with a liquid scintillation counter (manufactured by Packard instrument Co.). […] The Ki values shown in the table were calculated by the following equation: [formula]

[3] = Acute Toxicity Test (minimum lethal dose, po); assay type: in vivo; conditions: mice, 7 days after administration
Protocol: Test compounds were orally administered to groups of dd-strain male mice weighing 20±1 g, each group consisting of three mice (po; 300 mg/kg). Seven days after the administration, minimum lethal dose (MLD) of each compound was determined by observing the mortality.
Therefore, these compounds can be safely used in a wide range of doses.

[4] = test system: Haloperidol-Induced Catalepsy; experiment: Effect on Haloperidol-Induced Catalepsy; assay type: in vivo, male ddY mice; conditions: 10 mg/kg po; for Total Score (catalepsy): sum of five mice, 25 points at the full, control 25; for inhibition in vivo at 10 mg/kg: Mus musculus, decrease in total score based on control group, read-out: Remission Rate
Protocol: Effect on Haloperidol-Induced Catalepsy Parkinson's disease is a clinical syndrome caused by degeneration of nigrostriatal dopaminergic neurons. […] The experiment was performed by using several groups of 5-weeks-old male ddY mice (weighing 22 to 24 g, Japan SLC), each group consisting of 5 mice. Haloperidol (Janssen Pharmaceutica) suspended in 0.3% CMC was intraperitoneally administered to each mouse at a dose of 1.0 mg/kg. Test compounds were suspended in injectable distilled water (Otsuka Pharmaceutical Co., Ltd.) containing Tween 80 [polyoxyethylene (20) sorbitan monooleate]. L-DOPA (Kyowa Hakko Kogyo Co., Ltd.) and benserazide hydrochloride (Kyowa Hakko Kogyo Co., Ltd.) were suspended in 0.3% CMC. One hour after the haloperidol administration, the test compound suspensions and the control suspension [injectable distilled water (Otsuka Pharmaceutical Co., Ltd.) containing Tween 80] containing no test compound were orally administered to separate groups of the mice (0.1 ml per 10 g of body weight). One hour after the administration of the test compound, the forelimbs of each mouse and subsequently the hindlimbs of the same mouse were placed on a 4.5 cm-high, 1.0 cm-wide bar and catalepsy was estimated. […] The catalepsy score and the standard of judgment are shown below. […] The effect of the compounds was evaluated by the total of the catalepsy scores of five mice in each group (25 points at the full).

[5] = 10^-4 M, 3H-NECA, read-out: A2 Receptor Inhibition Rate
[6] = 10^-5 M, 3H-NECA, read-out: A2 Receptor Inhibition Rate
[7] = read-out: A2 Receptor Inhibition Rate
[8] = 3H-NECA, read-out: A2 Receptor Inhibition Rate

Row | inhibition at 1 µM (adenosine A2 receptor [1]) | inhibition at 0.1 µM (adenosine A2 receptor [1]) | inhibition at 100 µM (adenosine A2 receptor [2]; [5]) | inhibition at 10 µM (adenosine A2 receptor [2]; [6]) | Structure (SMILES) | Total Score (catalepsy) [4] | inhibition in vivo at 10 mg/kg [4] | other results
1 |  |  | 112% | 97% | CCCn1c(=O)c2c(nc(/C=C/c3cc(OC)c(OC)cc3S(=O)(=O)N(CC)CC)n2C)n(CCC)c1=O [Compound 2, (E)-N,N-Diethyl-4,5-dimethoxy-β-(7-methyl-1,3-dipropylxanthin-8-yl)styrene-2-sulfonamide] |  |  | 
2 | 88% | 69% |  |  | CCn1c(=O)c2c(nc(/C=C/c3ccc(C(=O)OC)cc3OC)n2C)n(CC)c1=O [Compound 20, (E)-β-(1,3-Diethyl-7-methylxanthin-8-yl) -2-methoxystyrene-4-carboxylic acid methyl ester] |  |  | 
3 | 93% | 66% |  |  | CCCn1c(=O)c2c(nc(/C=C/c3ccc(OC)c(C(C)=O)c3)n2C)n(CCC)c1=O [Compound 26, (E)-8-(3-Acetyl-4-methoxystyryl)-7-methyl-1,3-dipropylxanthine] |  |  | 
4 |  |  | 93% | 93% | CCCn1c(=O)c2c(nc(/C=C/c3cc(OC)c(OC)c(OC)c3S(=O)(=O)O)n2C)n(CCC)c1=O [Compound 11, (E)-β-(7-Methyl-1,3-dipropylxanthin-8-yl)-3,4,5-trimethoxystyrene-2-sulfonic acid] | 19 | 24% | 
5 | 89% | 56% |  |  | CCCn1c(=O)c2c(nc(/C=C/c3ccc(S(=O)(=O)O)cc3)n2C)n(CCC)c1=O [Compound 31, (E)-β-(7-Methyl-1,3-dipropylxanthin-8-yl)styrene-4-sulfonic acid] |  |  | 
6 |  |  | 60% | 74% | CCCn1c(=O)c2c(nc(/C=C/c3cc(OC)c(OC)cc3S(=O)(=O)N3CCCCC3)n2C)n(CCC)c1=O [Compound 4, (E)-4,5-Dimethoxy-β-(7-methyl-1,3-dipropylxanthin-8-yl)-2-piperidinosulfonylstyrene] | 11 | 56% | 
7 | 95% | 70% |  |  | CCCn1c(=O)c2c(nc(/C=C/c3ccc(C(=O)O)cc3OC)n2C)n(CCC)c1=O [Compound 23, (E)-2-Methoxy-β-(7-methyl-1,3-dipropylxanthin-8-yl)styrene-4-carboxylic acid] |  |  | 
8 |  |  | 91% | 92% | CCCN(CCC)S(=O)(=O)c1cc(OC)c(OC)cc1/C=C/c1nc2c(c(=O)n(CCC)c(=O)n2CCC)n1C [Compound 3, (E)-N,N-Dipropyl-4,5-dimethoxy-β-(7-methyl-1,3-dipropylxanthin-8-yl)styrene-2-sulfonamide] | 20 | 20% | 
9 |  |  | 76% | 68% | CCCn1c(=O)c2c(nc(/C=C/c3cc(OC)c(OC)c(OC)c3S(N)(=O)=O)n2C)n(CCC)c1=O [Compound 12, (E)-β-(7-Methyl-1,3-dipropylxanthin-8-yl)-3,4,5-trimethoxystyrene-2-sulfonamide] | 15 | 40% | 
10 |  |  | 89% | 69% | CCCn1c(=O)c2c(nc(/C=C/c3cc(OC)c(OC)c(OC)c3S(=O)(=O)N(C)CCN(C)C)n2C)n(CCC)c1=O [Compound 13, (E)-N-[2-(Dimethylamino)ethyl]-N-methyl-β-(7-methyl-1,3-dipropylxanthin-8-yl)-3,4,5-trimethoxystyrene-2-sulfonamide] |  |  | 
11 | 94% | 80% |  |  | CCCn1c(=O)c2c(nc(/C=C/c3ccc(C(=O)OC)cc3OC)n2C)n(CCC)c1=O [Compound 21, (E)-2-Methoxy-β-(7-methyl-1,3-dipropylxanthin-8-yl)styrene-4-carboxylic acid methyl ester] |  |  | 
12 |  |  | 92% | 77% | CCCn1c(=O)c2c(nc(/C=C/c3ccc(C(=O)OC)cc3)n2C)n(CCC)c1=O [Compound 7, (E)-β-(7-Methyl-1,3-dipropylxanthin-8-yl)styrene-4-carboxylic acid methyl ester] | 11 | 56% | 

Further lines, the compound ahead of its results:

Row | Structure (SMILES) | inhibition at 1 µM (adenosine A2 receptor [1]) | inhibition at 0.1 µM (adenosine A2 receptor [1]) | inhibition at 100 µM (adenosine A2 receptor [2]; [5]) | inhibition at 10 µM (adenosine A2 receptor [2]; [6]) | Total Score (catalepsy) [4] | inhibition in vivo at 10 mg/kg [4] | other results
13 | CCn1c(=O)c2c(nc(/C=C/c3ccc(F)c(C(C)=O)c3)n2C)n(CC)c1=O [Compound 28, (E)-8-(3-Acetyl-4-fluorostyryl)-1,3-diethyl-7-methylxanthine] | 86% | 76% |  |  |  |  | 
14 | CCCn1c(=O)c2c(nc(/C=C/c3cc(OC)c(OC)cc3S(=O)(=O)O)n2C)n(CCC)c1=O [Compound 1, (E)-4,5-Dimethoxy-β-(7-methyl-1,3-dipropylxanthin-8-yl)styrene-2-sulfonic acid] |  |  |  |  |  |  | Ki (adenosine A2 receptor [2]; 3H-NECA): 670 nM; inhibition at 10 µM (adenosine A2 receptor [2]; [7]): 80%; inhibition at 100 µM (adenosine A2 receptor [2]; [7]): 95%; MLD (minimum lethal dose) [3]: > 300 mg/kg
15 | CCn1c(=O)c2c(nc(/C=C/c3ccc(C(=O)O)cc3OC)n2C)n(CC)c1=O [Compound 22, (E)-β-(1,3-Diethyl-7-methylxanthin-8-yl)-2-methoxystyrene-4-carboxylicacid] | 92% | 60% |  |  |  |  | 
16 | CCCn1c(=O)c2c(nc(/C=C/c3cc(OC)c(OC)cc3S(=O)(=O)N(C)CCN(C)C)n2C)n(CCC)c1=O [Compound 6, (E)-N-[2-(Dimethylamino)ethyl]-N-methyl-4,5-dimethoxy-β-(7-methyl-1,3-dipropylxanthin-8-yl)styrene-2-sulfonamide] |  |  |  |  | 19 | 24% | 
17 | CCCn1c(=O)c2c(nc(/C=C\c3ccc(C(=O)OC)cc3)n2C)n(CCC)c1=O [Compound 8, (Z)-β-(7-methyl-1,3-dipropylxanthin-8-yl)styrene-4-carboxylic acid methyl ester] |  |  | 101% | 92% |  |  | MLD (minimum lethal dose) [3]: > 300 mg/kg
18 | CCCn1c(=O)c2c(nc(/C=C/c3cc(OC)c(OC)cc3S(=O)(=O)Nc3ccccc3)n2C)n(CCC)c1=O [Compound 10, (E)-N-Phenyl-4,5-dimethoxy-β-(7-methyl-1,3-dipropylxanthin-8-yl)styrene-2-sulfonamide] |  |  |  |  | 17 | 32% | 
19 | CCn1c(=O)c2c(nc(/C=C/c3ccc(C(C)=O)c(OC)c3)n2C)n(CC)c1=O [Compound 30, (E)-8-(4-Acetyl-3-methoxystyryl)-1,3-diethyl-7-methylxanthine] | 95% | 83% |  |  |  |  | 
20 | CCCn1c(=O)c2c(nc(/C=C\c3ccc(C(=O)O)cc3)n2C)n(CCC)c1=O [Compound 18, (Z)-β-(7-Methyl-1,3-dipropylxanthin-8-yl)styrene-4-carboxylic acid] |  |  |  |  |  |  | inhibition at 1 µM (adenosine A2 receptor [2]; [8]): 72%; MLD (minimum lethal dose) [3]: > 300 mg/kg
21 | CCCn1c(=O)c2c(nc(/C=C/c3ccc(C(=O)O)cc3)n2C)n(CCC)c1=O [Compound 19, (E)-β-(7-Methyl-1,3-dipropylxanthin-8-yl)styrene-4-carboxylic acid] |  |  |  |  |  |  | inhibition at 1 µM (adenosine A2 receptor [2]; [8]): 94%; inhibition at 0.1 µM (adenosine A2 receptor [2]; 10^-7 M, 3H-NECA, read-out: A2 Receptor Inhibition Rate): 68%
22 | CCCn1c(=O)c2c(nc(/C=C/c3cc(C)c(C)cc3S(=O)(=O)O)n2C)n(CCC)c1=O [Compound 15, (E) -4,5-Dimethyl-β-(7-methyl-1,3-dipropylxanthin-8-yl)styrene-2-sulfonicacid] |  |  |  |  |  |  | MLD (minimum lethal dose) [3]: > 300 mg/kg
